Results from PubChem BioAssay AID1963858 (Molecular Pharmacology Branch, DTP, NCI, 2024).

System: HOP-62 multicell spheroids with HUVEC/MSC, viability
Assay: Anticancer human tumor HOP-62 cell line growth inhibition [KRAS2];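 further: viability read after a week of compound exposure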;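 on viability, T/C: 100% = DMSO vehicle-treated spheroids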
Conditions: for IC50: curve of first compound; for viability, T/C: stronger effect = lower value
How it was run: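 Combination screen of spheroid viability in tumor-cell co-cultures with endothelial (HUVEC) and mesenchymal stem cell stroma. Each agent was tested in half-log dilutions, topping at clinical Cmax or at 10 microM without a known Cmax.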

[1] = second compound 0.1 µM, first compound 0.0316 µM
[2] = second compound 0.1 µM, first compound 0.1 µM
[3] = second compound 0.1 µM, first compound 0.316 µM
[4] = second compound 0.1 µM, first compound 1 µM
[5] = second compound 0.1 µM, first compound 3.16 µM
[6] = second compound 0.1 µM, first compound 10 µM
[7] = second compound 0.316 µM, first compound 0.0316 µM
[8] = second compound 0.316 µM, first compound 0.1 µM
[9] = second compound 0.316 µM, first compound 0.316 µM
[10] = second compound 0.316 µM, first compound 1 µM
[11] = second compound 0.316 µM, first compound 3.16 µM
[12] = second compound 0.316 µM, first compound 10 µM
[13] = second compound 1 µM, first compound 0.0316 µM
[14] = second compound 1 µM, first compound 0.1 µM
[15] = second compound 1 µM, first compound 0.316 µM
[16] = second compound 1 µM, first compound 1 µM
[17] = second compound 1 µM, first compound 3.16 µM
[18] = second compound 1 µM, first compound 10 µM
[19] = second compound 3.16 µM, first compound 0.0316 µM
[20] = second compound 3.16 µM, first compound 0.1 µM
[21] = second compound 3.16 µM, first compound 0.316 µM
[22] = second compound 3.16 µM, first compound 1 µM
[23] = second compound 3.16 µM, first compound 3.16 µM
[24] = second compound 3.16 µM, first compound 10 µM
[25] = second compound 10 µM, first compound 0.0316 µM
[26] = second compound 10 µM, first compound 0.1 µM
[27] = second compound 10 µM, first compound 0.316 µM
[28] = second compound 10 µM, first compound 1 µM
[29] = second compound 10 µM, first compound 3.16 µM
[30] = second compound 10 µM, first compound 10 µM

| Structure (SMILES) | IC50 (second compound 0.1 µM) | IC50 (second compound 0.316 µM) | IC50 (second compound 1 µM) | IC50 (second compound 3.16 µM) | IC50 (second compound 10 µM) | viability, T/C [1] | viability, T/C [2] | viability, T/C [3] | viability, T/C [4] | viability, T/C [5] | viability, T/C [6] | viability, T/C [7] | viability, T/C [8] | viability, T/C [9] | viability, T/C [13] | viability, T/C [14] | viability, T/C [19] | viability, T/C [20] | viability, T/C [25] | viability, T/C [26] | also measured |
| --- | --- | --- | --- | --- | --- | --- | --- | --- | --- | --- | --- | --- | --- | --- | --- | --- | --- | --- | --- | --- | --- |
| CC(C)NCC(C(=O)N1CCN(c2ncnc3c2C(C)CC3O)CC1)c1ccc(Cl)cc1 (stereo not given) + CNCc1ccccc1-c1csc(C(C)Nc2nc(C)nc3cc(OC)c(OC)cc23)c1 | 0.844 µM | 0.608 µM | 0.212 µM | < 0.0316 µM | < 0.0316 µM | 119% | 83% | 83.4% | 45.9% | 17.2% | 10.3% | 89.5% | 78.5% | 73.7% | 81.3% | 74.8% | 0.41% | 0.71% | 0.24% | 0.26% | viability, T/C [10]: 32.4%; viability, T/C [11]: 13.4%; viability, T/C [12]: 10.2%; viability, T/C [15]: 35.6%; viability, T/C [16]: 23.4%; viability, T/C [17]: 16.9%; viability, T/C [18]: 9.94%; viability, T/C [21]: 0.27%; viability, T/C [22]: 0.47%; viability, T/C [23]: 0.17%; viability, T/C [24]: 0.26%; viability, T/C [27]: 0.26%; viability, T/C [28]: 0.25%; viability, T/C [29]: 0.23%; viability, T/C [30]: 0.33% |
| CC(C)n1nc(-c2ccc3oc(N)nc3c2)c2c(N)ncnc21 + CNCc1ccccc1-c1csc(C(C)Nc2nc(C)nc3cc(OC)c(OC)cc23)c1 | 0.00445 µM | 0.00224 µM | 0.00178 µM | < 0.000316 µM | < 0.000316 µM | 22.2% | 15.9% |  |  |  |  | 19.5% | 15.9% |  | 17.3% | 14.1% | 2.66% | 0.67% | 0.38% | 0.52% | viability, T/C (second compound 0.1 µM, first compound 0.000316 µM): 113%; viability, T/C (second compound 0.1 µM, first compound 0.001 µM): 86.7%; viability, T/C (second compound 0.1 µM, first compound 0.00316 µM): 57.9%; viability, T/C (second compound 0.1 µM, first compound 0.01 µM): 32.5%; viability, T/C (second compound 0.316 µM, first compound 0.000316 µM): 89.5%; viability, T/C (second compound 0.316 µM, first compound 0.001 µM): 69.2%; viability, T/C (second compound 0.316 µM, first compound 0.00316 µM): 40.2%; viability, T/C (second compound 0.316 µM, first compound 0.01 µM): 27.9%; viability, T/C (second compound 1 µM, first compound 0.000316 µM): 75.9%; viability, T/C (second compound 1 µM, first compound 0.001 µM): 63.1%; viability, T/C (second compound 1 µM, first compound 0.00316 µM): 35.3%; viability, T/C (second compound 1 µM, first compound 0.01 µM): 28.9%; viability, T/C (second compound 3.16 µM, first compound 0.000316 µM): 0.36%; viability, T/C (second compound 3.16 µM, first compound 0.001 µM): 0.49%; viability, T/C (second compound 3.16 µM, first compound 0.00316 µM): 0.36%; viability, T/C (second compound 3.16 µM, first compound 0.01 µM): 0.46%; viability, T/C (second compound 10 µM, first compound 0.000316 µM): 0.46%; viability, T/C (second compound 10 µM, first compound 0.001 µM): 0.4%; viability, T/C (second compound 10 µM, first compound 0.00316 µM): 0.42%; viability, T/C (second compound 10 µM, first compound 0.01 µM): 0.42% |
| CC1(C)CCC(CN2CCN(c3ccc(C(=O)NS(=O)(=O)c4ccc(NCC5CCOCC5)c([N+](=O)[O-])c4)c(Oc4cnc5[nH]ccc5c4)c3)CC2)=C(c2ccc(Cl)cc2)C1 + CNCc1ccccc1-c1csc(C(C)Nc2nc(C)nc3cc(OC)c(OC)cc23)c1 | 5.71 µM | 4.57 µM | 3.38 µM | < 0.0316 µM | < 0.0316 µM | 92.1% | 89.5% | 82.5% | 95.3% | 71.6% | 29.5% | 81.2% | 77% | 76.5% | 90.1% | 76.2% | 1.65% | 25.9% | 0.12% | 0.16% | viability, T/C [10]: 81.6%; viability, T/C [11]: 61.8%; viability, T/C [12]: 24.9%; viability, T/C [15]: 67.8%; viability, T/C [16]: 73.1%; viability, T/C [17]: 54%; viability, T/C [18]: 14.9%; viability, T/C [21]: 17.9%; viability, T/C [22]: 40.3%; viability, T/C [23]: 13.5%; viability, T/C [24]: 1.45%; viability, T/C [27]: 0.16%; viability, T/C [28]: 0.18%; viability, T/C [29]: 0.15%; viability, T/C [30]: 0.22% |
